Ends that are not written are not given here.
Experiments:
Details in all cases: SD
[1] = target: cSH3 domain of Grb2 (Homo sapiens, UniProt P62993); assay: ITC binding of Sos1 peptides to wildtype cSH3 domain of Grb2
[2] = target: nSH3 domain of Grb2 (Homo sapiens, UniProt P62993); assay: ITC binding of Sos1 peptides to wildtype nSH3 domain of Grb2
[3] = target: cSH3_D190A mutant domain of Grb2 (Homo sapiens, UniProt P62993, D190A); assay: ITC binding of Sos1 peptides to cSH3_D190A mutant domain
[4] = target: nSH3_E31A mutant domain of Grb2 (Homo sapiens, UniProt P62993, E31A); assay: ITC binding of Sos1 peptides to nSH3_E31A mutant domain
[5] = target: nSH3_D33A mutant domain of Grb2 (Homo sapiens, UniProt P62993, D33A); assay: ITC binding of Sos1 peptides to nSH3_D33A mutant domain
[6] = target: cSH3_D187A mutant domain of Grb2 (Homo sapiens, UniProt P62993, D187A); assay: ITC binding of Sos1 peptides to cSH3_D187A mutant domain
Sequence of cSH3_D187A mutant domain of Grb2 (P62993 156-215 D187A limits assumed): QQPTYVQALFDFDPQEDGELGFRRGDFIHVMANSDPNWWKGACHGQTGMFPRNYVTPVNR

Sequence of nSH3 domain of Grb2 (P62993 1-58 limits assumed): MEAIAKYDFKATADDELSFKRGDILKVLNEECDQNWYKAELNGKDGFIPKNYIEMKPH
Sequence of cSH3 domain of Grb2 (P62993 156-215 limits assumed): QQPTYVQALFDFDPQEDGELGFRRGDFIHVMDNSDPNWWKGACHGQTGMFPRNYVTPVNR
Sequence of cSH3_D190A mutant domain of Grb2 (P62993 156-215 D190A limits assumed): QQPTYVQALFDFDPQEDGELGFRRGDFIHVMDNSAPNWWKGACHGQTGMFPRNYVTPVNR
Sequence of nSH3_D33A mutant domain of Grb2 (P62993 1-58 D33A limits assumed): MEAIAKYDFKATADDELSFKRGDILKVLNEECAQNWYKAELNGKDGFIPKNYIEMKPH
Sequence of nSH3_E31A mutant domain of Grb2 (P62993 1-58 E31A limits assumed): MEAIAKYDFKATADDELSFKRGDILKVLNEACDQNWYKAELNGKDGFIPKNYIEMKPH

Sequence | Kd [1] [µM] | Kd [2] [µM] | Kd [3] [µM] | Kd [4] [µM] | Kd [5] [µM] | Kd [6] [µM]
ESPPLLPPREPV [Peptide S3] | 1720 ± 33 | 117 ± 2 |  |  |  | 
PVPPPVPPARRP [S1_R+5A] | 962 ± 26 | 490 ± 20 |  |  |  | 
PVPPPVPPAAAP [Peptide S1_AAA] | 3090 ± 121 | 2560 ± 335 |  |  |  | 
PVPPPVPPRRAP [S1_R+7A] | 318 ± 23 | 72 ± 1 | 482 ± 47 | 91 ± 1.2 | 169 ± 4.5 | 2390 ± 73
DSPPAIPPRQPT [Peptide S2] | 1400 ± 87 | 56 ± 5 |  |  |  | 
IAGPPVPPRQST [Peptide S4] | 1320 ± 44 | 82 ± 1 |  |  |  | 
PVPPPVPPRARP [S1_R+6A] | 331 ± 2 | 53 ± 1 | 910 ± 57 | 67 ± 0.3 | 137 ± 7.6 | 544 ± 102
PVPPPVPPRAAP [Peptide S1_AA] | 1570 ± 27 | 84 ± 1 |  |  |  | 

From publication PMC2710136 (Biochemistry, 2009)
